Entries after “also recorded” stand apart in the source; their conditions may differ. Read-outs that look alike come from different tables or passages of the source.
Experiment: Plasma pharmacokinetics (validated HPLC/MS, noncompartmental analysis)
Type: in vivo, human
Conditions: for Cmax / AUC(0-t) / Tmax / half-life / AUC(0-inf): human, plasma, oral
Protocol: Milademetan concentrations were determined using a validated HPLC/MS method. The lower limit of quantification was 0.500 ng/mL. Noncompartmental analysis was used to calculate the PK parameters from milademetan plasma concentrations. In addition, the Phoenix WinNonlin 8.1 software (Certara, Princeton, NJ, USA) was used for PK analysis. In addition to descriptive statistics, the geometric mean and geometric coefficient of variation were used to describe the PK parameters. All analyses were conducted using SAS® software (version 9.4; SAS Institute Inc., Cary, NC, USA). The time courses of mean plasma milademetan concentrations on days 1 and 14 of cycle 1 (linear scale) in the QD 14/28-day schedule were used for pharmacokinetic analysis. The best response was measured as CR, CRh, CRi, or PR. For efficacy analysis, a waterfall plot of the best percent change from baseline blast count in bone marrow aspirate on the QD 14/28-day schedule was drawn to assess the blast count reduction. In addition, line plots of individual serum MIC-1 levels were drawn in the QD 14/28-day schedule for the pharmacodynamics analysis set.

SMILES: CC1(C)CCC2(CC1)N[C@@H](C(=O)N[C@@H]1CC[C@@H](C(N)=O)OC1)[C@H](c1ccnc(Cl)c1F)[C@]21C(=O)Nc2cc(Cl)ccc21 [milademetan]
- AUCinf (Day 1 of cycle 1, 90 mg/day, mean (SD), two patients excluded): 13,700 (4,100) ng h/mL
- Mean accumulation ratios based on AUC24h (Day 14, dose range tested (90-160 mg)): 1.40–1.90
- Ctrough (Day 14 of cycle 1, 90 mg/day, mean (SD)): 422 (147) ng/mL
- Ctrough (Day 14 of cycle 1, 120 mg/day, mean (SD)): 635 (533) ng/mL
- Ctrough (Day 14 of cycle 1, 160 mg/day, mean (SD)): 769 (221) ng/mL
- Increase in Cmax and AUC with dose (dose range tested, single and multiple dosing): increased linearly with milademetan dose; also recorded: linear and dose-proportional
- Cmax (90 mg/day, Day 1 of cycle 1, 90 mg/day, mean (SD)): 653 ng/mL
- AUC(0-t) (90 mg/day, Day 1 of cycle 1, 90 mg/day, mean (SD), two patients excluded, read-out: AUC24h): 8640 ng·h/mL
- AUC(0-t) (90 mg/day, Day 1 of cycle 1, 90 mg/day, mean (SD), read-out: AUC8h): 3170 ng·h/mL
- AUC(0-t) (90 mg/day, Day 1 of cycle 1, 90 mg/day, mean (SD), read-out: AUClast): 8060 ng·h/mL
- Tmax (90 mg/day, Day 1 of cycle 1, 90 mg/day, median (minimum, maximum), read-out: Tmax): 4.45 h
- Cmax (90 mg/day, Day 14 of cycle 1, 90 mg/day, mean (SD)): 1090 ng/mL
- AUC(0-t) (90 mg/day, Day 14 of cycle 1, 90 mg/day, mean (SD), read-out: AUC8h): 6220 ng·h/mL
- Tmax (90 mg/day, Day 14 of cycle 1, 90 mg/day, median (minimum, maximum), read-out: Tmax): 3.02 h
- Cmax (120 mg/day, Day 1 of cycle 1, 120 mg/day, mean (SD)): 1010 ng/mL
- AUC(0-t) (120 mg/day, Day 1 of cycle 1, 120 mg/day, mean (SD), one patient excluded, read-out: AUC24h): 12100 ng·h/mL
- AUC(0-t) (120 mg/day, Day 1 of cycle 1, 120 mg/day, mean (SD), read-out: AUC8h): 4940 ng·h/mL
- AUC(0-t) (120 mg/day, Day 1 of cycle 1, 120 mg/day, mean (SD), read-out: AUClast): 11300 ng·h/mL
- Tmax (120 mg/day, Day 1 of cycle 1, 120 mg/day, median (minimum, maximum), read-out: Tmax): 3.13 h
- Cmax (120 mg/day, Day 14 of cycle 1, 120 mg/day, mean (SD)): 1680 ng/mL
- AUC(0-t) (120 mg/day, Day 14 of cycle 1, 120 mg/day, mean (SD), read-out: AUC8h): 10000 ng·h/mL
- Tmax (120 mg/day, Day 14 of cycle 1, 120 mg/day, median (minimum, maximum), read-out: Tmax): 2.98 h
- Cmax (160 mg/day, Day 1 of cycle 1, 160 mg/day, mean (SD)): 1380 ng/mL
- AUC(0-t) (160 mg/day, Day 1 of cycle 1, 160 mg/day, mean (SD), two patients excluded, read-out: AUC24h): 15000 ng·h/mL
- AUC(0-t) (160 mg/day, Day 1 of cycle 1, 160 mg/day, mean (SD), read-out: AUC8h): 6560 ng·h/mL
- AUC(0-t) (160 mg/day, Day 1 of cycle 1, 160 mg/day, mean (SD), read-out: AUClast): 14900 ng·h/mL
- Tmax (160 mg/day, Day 1 of cycle 1, 160 mg/day, median (minimum, maximum), read-out: Tmax): 2.54 h
- Cmax (160 mg/day, Day 14 of cycle 1, 160 mg/day, mean (SD)): 2710 ng/mL
- AUC(0-t) (160 mg/day, Day 14 of cycle 1, 160 mg/day, mean (SD), read-out: AUC8h): 15300 ng·h/mL
- Tmax (160 mg/day, Day 14 of cycle 1, 160 mg/day, median (minimum, maximum), read-out: Tmax): 3.03 h
- half-life (Day 1 of cycle 1, 90 mg/day, mean (SD), two patients excluded, read-out: t1/2 (converted)): 15.9 h
- AUC(0-inf) (Day 1 of cycle 1, 120 mg/day, mean (SD), one patient excluded): 18600 ng·h/mL
- half-life (Day 1 of cycle 1, 120 mg/day, mean (SD), one patient excluded, read-out: t1/2 (converted)): 14.1 h
- AUC(0-inf) (Day 1 of cycle 1, 160 mg/day, mean (SD), two patients excluded): 22700 ng·h/mL
- half-life (Day 1 of cycle 1, 160 mg/day, mean (SD), two patients excluded, read-out: t1/2 (converted)): 14.6 h
- half-life (across doses, read-out: Mean half-life (converted)): ~15 h
- Tmax (across doses, read-out: Median Tmax): 3 to 4 h

— paper PMC9813109, “Phase I dose-escalation study of milademetan in patients with relapsed or refractory acute myeloid leukemia” (International Journal of Hematology, 2022)
